Assay results reported in ChEMBL document CHEMBL5252651, “Discovery of Bioactive Metabolites by Acidic Stress to a Geldanamycin Producer, Streptomyces samsunensis” (J Nat Prod, 2023).
The source made the active and inactive calls.

Columns and labels:
Type in all cases: functional, organism-based
Staphylococcus aureus [1] = experiment: Antibacterial activity against methicillin-resistant Staphylococcus aureus USA300 LAC assessed as bacterial growth inhibition at 5 ug/ml incubated for 22 hrs by microplate reader analysis; conditions: dose 5.0 µg/ml
Staphylococcus aureus [2] = experiment: Anti-biofilm activity against methicillin-resistant Staphylococcus aureus USA300 LAC assessed as inhibition of biofilm formation incubated for 22 hrs by crystal violet staining based assay
Staphylococcus = experiment: Antivirulence activity against methicillin-resistant Staphylococcus aureus USA300 LAC assessed as inhibition of Phenol soluble modulin production at 5 ug/ml incubated for 22 hrs by LC-MS analysis; conditions: dose 5.0 µg/ml
Staphylococcus aureus [3] = experiment: Antibacterial activity against methicillin-resistant Staphylococcus aureus USA300 LAC assessed as bacterial growth inhibition at 10 ug/ml incubated for 22 hrs by microplate reader analysis; conditions: dose 10.0 µg/ml
Staphylococcus aureus [4] = experiment: Antivirulence activity against methicillin-resistant Staphylococcus aureus USA300 LAC assessed as change in […] transcriptional level at 10 ug/ml incubated for 8 to 16 hrs by qRT-PCR analysis; conditions: dose 10.0 µg/ml, time 8-16 hrs
Staphylococcus aureus [5] = experiment: Antivirulence activity against methicillin-resistant Staphylococcus aureus USA300 LAC assessed as change in RNAIII transcriptional level at 10 ug/ml incubated for 8 to 16 hrs by qRT-PCR analysis; conditions: dose 10.0 µg/ml, time 8-16 hrs

CO[C@H]1/C=C\C=C(/C)C(=O)NC2=CC(=O)C(O)=C(C[C@@H](C)C[C@H](OC)[C@H](O)[C@@H](C)/C=C(\C)[C@@H]1OC(N)=O)C2=O
inactive: Activity (Staphylococcus aureus [1]) | Activity (Staphylococcus aureus [2]) | inhibition (Staphylococcus) | Activity (Staphylococcus aureus [3]) | Activity (Staphylococcus aureus [4]) | Activity (Staphylococcus aureus [5])

COc1c(-c2ccccc2)cc(O[C@@H]2O[C@H](C(=O)O)[C@@H](O)[C@H](O)[C@H]2O)c(-c2ccccc2)c1O
inactive: Activity (Staphylococcus aureus [1]) | Activity (Staphylococcus aureus [2]) | inhibition (Staphylococcus)

COC1=C2C[C@@H](C)C[C@H](OC)[C@H](O)[C@@H](C)/C=C(\C)[C@H](OC(N)=O)[C@@H](OC)/C=C\C=C(/C)C(=O)NC(=CC1=O)C2=O
inactive: Activity (Staphylococcus aureus [1]) | Activity (Staphylococcus aureus [2]) | inhibition (Staphylococcus) | Activity (Staphylococcus aureus [3]) | Activity (Staphylococcus aureus [4]) | Activity (Staphylococcus aureus [5])

CO[C@H]1/C=C\C=C(/C)C(=O)Nc2cc(O)c(O)c(c2O)C[C@@H](C)C[C@H](OC)[C@H](O)[C@@H](C)/C=C(\C)[C@@H]1OC(N)=O
inactive: Activity (Staphylococcus aureus [1]) | Activity (Staphylococcus aureus [2]) | inhibition (Staphylococcus)

Cc1cc(C[C@H](NC(=O)/C=C/C=C/CO)C(=O)O)ccc1O
inactive: Activity (Staphylococcus aureus [1]) | Activity (Staphylococcus aureus [2]) | inhibition (Staphylococcus)

O=C(O)/C=C/C1=C(c2cccc(O)c2)C(=O)CC[C@H]1O
inactive: Activity (Staphylococcus aureus [1]) | Activity (Staphylococcus aureus [2]) | inhibition (Staphylococcus)

CO[C@@H](C[C@H](C)Cc1cc(O)cc(NC(C)=O)c1)[C@H](O)[C@H](C)C(=O)O
inactive: Activity (Staphylococcus aureus [1]) | Activity (Staphylococcus aureus [2]) | inhibition (Staphylococcus) | Activity (Staphylococcus aureus [3]) | Activity (Staphylococcus aureus [4]) | Activity (Staphylococcus aureus [5])

CO[C@H]1C[C@H](C)CC2=C(O)C(=O)C=C(NC(=O)/C(C)=C/[C@@H](O)C[C@H](OC)[C@@H](OC(N)=O)/C(C)=C/[C@H](C)[C@H]1O)C2=O
inactive: Activity (Staphylococcus aureus [1]) | Activity (Staphylococcus aureus [2]) | inhibition (Staphylococcus)

CO[C@@H](C[C@H](C)Cc1cc(O)cc(NC(C)=O)c1)C(=O)O
inactive: Activity (Staphylococcus aureus [1]) | Activity (Staphylococcus aureus [2]) | inhibition (Staphylococcus)

CO[C@H]1C[C@H](C)CC2=C(O)C(=O)C=C(NC(=O)/C(C)=C/[C@H](O)C[C@H](OC)[C@@H](OC(N)=O)/C(C)=C/[C@H](C)[C@H]1O)C2=O
inactive: Activity (Staphylococcus aureus [1]) | Activity (Staphylococcus aureus [2]) | inhibition (Staphylococcus)

CC(=O)Nc1cc(O)cc(C[C@@H](C)C(=O)O)c1
inactive: Activity (Staphylococcus aureus [1]) | Activity (Staphylococcus aureus [2]) | inhibition (Staphylococcus)
